# In US11578013B2, “Nitrification inhibitors” (Lincoln University, priority 2020, dated 2023):
# Counter-ions that a name gives are not always drawn.
# Experiments:
# nitrification = assay: Table 1 summary: compounds found to work or not work as nitrification inhibitors, Inhib(%); set-up: concentration or dose not given beside the values; conditions: test and rate not given
# Method: The phenotypic screening involved assessing the nitrification inhibition potency of the selected 5000 compounds against a key ammonia oxidizing bacterium responsible for ammonia oxidation in the soil, Nitrosomonas europaea, in 96-well microtiter plates. N. europaea cells were grown in the presence of an ammonium source, and the potential of putative nitrification inhibitors to inhibit the production of nitrite (NO2) was measured relative to untreated cells.
# A summary of selected compounds initially found to either work or not work as nitrification inhibitors is detailed in Table 1 below.
# [1] = test system: nitrification in the soil; assay: Laboratory soil incubation, Templeton sandy loam with synthetic cow urine, nitrate-N; conditions: for nitrate-N concentration in the soil compared with urine alone or urine+DMSO / reducing the nitrification rate compared with DCD: day 30; for reducing the nitrification rate compared with DCD: compound at 2 kg/ha vs DCD at 10 kg/ha; for % reduction by NI (nitrate-N): vs urine alone, 30 days; for Nitrate-N: 30 days of incubation
# Method: A Templeton sandy loam was used in this experiment. 500 g of soil (dry weight basis) was packed into a pottle. 50 mL of synthetic cow urine with an N concentration of 7 g N/L (comprising about 87% urea-N and 13% glycine-N) was applied to the soil (equivalent to 700 kg N/ha on weight basis, assuming bulk density of 1 g/cm^3 in the top 10 cm of soil). The 700 kg N/ha application was used to simulate the urine-N application rate under a typical dairy cow urine patch in a grazed pasture.
# Control treatments also added to soil were: • urine alone (50 mL); • DMSO (equivalent to 0.9 mL/500 g soil)+urine (50 mL) to determine the effect of DMSO on nitrification rate; • water alone (50 mL) (simulating areas of the soil where no urine was deposited).
# Pottles were covered with lids with breathing holes to allow for gas exchange during incubation. Pottles were incubated at 12° C. Soil moisture content was maintained at field capacity by adjusting on weight basis twice a week.
# Soil samples were collected and were then thoroughly mixed and subsamples were extracted in a potassium chloride solution and analysed for mineral-N. Soil moisture content was also determined. Samples were taken at 30 days after the start of incubation. […]
# [2] = test system: N2O emissions in the soil; assay: Field study of nitrous oxide emissions, static gas chamber method, urine-treated pasture soil; conditions: for nitrous oxide reductions compared with DCD: sprayed onto urine-treated pasture soil
# Method: (§1) This study was conducted on the Lincoln University Research Dairy Farm, and the soil was a Templeton sandy loam with established perennial ryegrass (Lolium perenne) and white clover (Trifolium repens.) pasture. Metal rings (500 mm diameter and 200 mm height) were inserted into the ground. A water trough sitting on top of the metal rings allowed the placement of static chambers sitting on top of the water trough to provide a gas-tight seal to allow N2O gas sampling.
# Synthetic urine with a nitrogen concentration of 7 g N/L was applied to the soil plots confined within the metal rings at the equivalent rate of 700 kg N/ha. […] The plots were irrigated with irrigation water in accordance with local dairy farming practice.
# (§2) The gas chamber (500 mm diameter and 120 mm height) was constructed of a metal cylinder insulated with 2.5 cm thick polystyrene foam to avoid heating of the atmosphere in the chamber during sampling. During periods of N2O measurement, the edge of the chamber was placed inside the small water trough which was mounted around the top of each metal ring for gas sampling. At each sampling time, the chamber was placed on top of the soil ring for a total of 40 minutes, and 3 samples, 20 minutes apart, were taken using a syringe through a rubber septum on top of the gas chamber. Samples were taken twice weekly. Each sampling was carried out during the middle of the day between 12:00 h to 14:00 h (Di et al., 2007). The N2O concentration in the samples was analysed using a gas chromatograph (SRI8610C with an Electron Capture Detector (ECD) (SRI Instruments, USA) linked to a Gilson 222XL autosampler (Gilson, France)
# as §1, with “To determine the effect of treating the soil with 2-ethynyl-5-methoxypyridine on nitrous oxide emissions under field soil conditions, a field study was conducted using the static gas chamber method. This” for “This”
# Synthetic urine with a nitrogen concentration of 7 g N/L was applied to the soil plots confined within the metal rings at the equivalent rate of 700 kg N/ha. 196.25 mg or 39.2 mg of 2-ethynyl-5-methoxypyridine were dissolved in 2 mL DMSO, mixed with 1000 mL of water, and then sprayed on to the mini-plots at the rates of 196.25 mg/plot and 39.2 mg/plot, equivalent to 10 kg/ha and 2 kg/ha, respectively. The plots were irrigated with irrigation water in accordance with local dairy farming practice.
# as §2, with “France).” for “France)”
# To determine the effect of treating the soil with 3-ethynylpyridine 1-oxide on nitrous oxide emissions under field soil conditions, a field study was conducted using the static gas chamber method. […]
smiles,measurement,setting,value
"C#Cc1ccc(C#C)cc1 [1,4-diethynylbenzene]",Inhib(%),nitrification,100%
same,nitrate-N concentration in the soil compared with urine alone or urine+DMSO,[1]; 2 kg/ha,significantly lower nitrate-N concentrations
same,reducing the nitrification rate compared with DCD,[1],more effective than DCD
"C#CC1CCN(C(C)=O)CC1 [1-(4-ethynyl-1-piperidinyl)ethanone, reference compound]",Inhib(%),nitrification,0%
C#Cc1ccc(OCC)cc1 [1-ethoxy-4-ethynylbenzene],Inhib(%),nitrification,100%
same,nitrate-N concentration in the soil compared with urine alone or urine+DMSO,[1]; 2 kg/ha,significantly lower nitrate-N concentrations
same,reducing the nitrification rate compared with DCD,[1],more effective than DCD
"C#Cc1ccc(OC(F)(F)F)cc1 [1-ethynyl-4-(trifluoromethoxy)benzene, reference compound]",Inhib(%),nitrification,8%
"C#Cc1ccc(OCCCCC)cc1 [1-ethynyl-4-pentoxybenzene, reference compound]",Inhib(%),nitrification,2%
"C#Cc1ccc(C#C)nc1 [2,5-diethynylpyridine]",Inhib(%),nitrification,100%
same,nitrate-N concentration in the soil compared with urine alone or urine+DMSO,[1]; 2 kg/ha,lower nitrate-N concentrations
"C#Cc1cnc(C#C)nc1 [2,5-diethynylpyrimidine, reference compound]",Inhib(%),nitrification,60%
"C#Cc1ncccn1 [2-Ethynyl 1,3 Diazine, 2-Ethynylpyrimidine]",Inhib(%),nitrification,94%
same,% reduction by NI (nitrate-N),[1]; 0.5 kg/ha,96%
same,% reduction by NI (nitrate-N),[1]; 1 kg/ha,98%
same,% reduction by NI (nitrate-N),[1]; 2 kg/ha,84%
same,reducing the nitrification rate compared with DCD,[1],more effective than DCD
same,Nitrate-N,[1]; urine + inhibitor at 0.5 kg/ha,17.5 mg N/kg soil
same,Nitrate-N,[1]; urine + inhibitor at 1 kg/ha,9.1 mg N/kg soil
same,Nitrate-N,[1]; urine + inhibitor at 2 kg/ha,31.8 mg N/kg soil
same,% reduction by NI (N2O emissions),"[2]; 2 kg/ha, vs urine alone",91%
same,nitrous oxide reductions compared with DCD,[2],greater than that by DCD
same,N2O emissions,[2]; urine + inhibitor at 2 kg/ha,1.2 kg N2O—N/ha
same,N2O emissions,[2]; urine + inhibitor at 10 kg/ha,0.53 kg N2O—N/ha
C#Cc1cnc(OC)cn1 [2-Ethynyl-5-methoxypyrazine],nitrate-N concentration in the soil compared with urine alone or urine+DMSO,[1]; 1 kg/ha,lower nitrate-N concentrations
same,nitrate-N concentration in the soil compared with urine alone or urine+DMSO,[1]; 2 kg/ha,lower nitrate-N concentrations
same,melting point,,41.3 to 42.7 °C
C#Cc1ncc(OC)cn1 [2-Ethynyl-5-methoxypyrimidine],nitrate-N concentration in the soil compared with urine alone or urine+DMSO,[1]; 1 kg/ha,lower nitrate-N concentrations
same,nitrate-N concentration in the soil compared with urine alone or urine+DMSO,[1]; 2 kg/ha,significantly lower nitrate-N concentrations
same,reducing the nitrification rate compared with DCD,[1],more effective than DCD
same,melting point,,56.2 to 57.2 °C
C#Cc1ccc(OC)cn1 [2-ethynyl-5-methoxypyridine],Inhib(%),nitrification,100%
same,nitrate-N concentration in the soil compared with urine alone or urine+DMSO,[1]; 0.5 kg/ha,lower nitrate-N concentrations
same,% reduction by NI (nitrate-N),[1]; 0.5 kg/ha,93%
same,nitrate-N concentration in the soil compared with urine alone or urine+DMSO,[1]; 1 kg/ha,lower nitrate-N concentrations
same,% reduction by NI (nitrate-N),[1]; 1 kg/ha,97%
same,nitrate-N concentration in the soil compared with urine alone or urine+DMSO,[1]; 2 kg/ha,significantly lower nitrate-N concentrations
same,% reduction by NI (nitrate-N),[1]; 2 kg/ha,78%
same,reducing the nitrification rate compared with DCD,[1],more effective than DCD
same,Nitrate-N,[1]; urine + inhibitor at 0.5 kg/ha,28.6 mg N/kg soil
same,Nitrate-N,[1]; urine + inhibitor at 1 kg/ha,13.8 mg N/kg soil
same,Nitrate-N,[1]; urine + inhibitor at 2 kg/ha,100 mg N/kg soil
same,nitrous oxide reductions compared with DCD,[2],greater than that by DCD
same,N2O emissions,[2]; urine + inhibitor at 2 kg/ha,2 kg N2O—N/ha
same,N2O emissions,[2]; urine + inhibitor at 10 kg/ha,2 kg N2O—N/ha
C#Cc1cnccn1 [2-ethynylpyrazine],reducing the nitrification rate compared with DCD,[1],more effective than DCD
"C#Cc1cncnc1 [3-Ethynyl 1,5 Diazine, 5-Ethynylpyrimidine]",Inhib(%),nitrification,95%
same,% reduction by NI (nitrate-N),[1]; 0.5 kg/ha,70%
same,% reduction by NI (nitrate-N),[1]; 1 kg/ha,97%
same,% reduction by NI (nitrate-N),[1]; 2 kg/ha,84%
same,reducing the nitrification rate compared with DCD,[1],more effective than DCD
same,Nitrate-N,[1]; urine + inhibitor at 0.5 kg/ha,118.1 mg N/kg soil
same,Nitrate-N,[1]; urine + inhibitor at 1 kg/ha,13.3 mg N/kg soil
same,Nitrate-N,[1]; urine + inhibitor at 2 kg/ha,31.6 mg N/kg soil
same,nitrous oxide reductions compared with DCD,[2],greater than that by DCD
same,N2O emissions,[2]; urine + inhibitor at 2 kg/ha,0.89 kg N2O—N/ha
same,N2O emissions,[2]; urine + inhibitor at 10 kg/ha,0.92 kg N2O—N/ha
C#Cc1cccnn1 [3-Ethynylpyridazine],nitrate-N concentration in the soil compared with urine alone or urine+DMSO,[1]; 0.5 kg/ha,lower nitrate-N concentrations
same,% reduction by NI (nitrate-N),[1]; 0.5 kg/ha,91%
same,nitrate-N concentration in the soil compared with urine alone or urine+DMSO,[1]; 1 kg/ha,lower nitrate-N concentrations
same,% reduction by NI (nitrate-N),[1]; 1 kg/ha,98%
same,nitrate-N concentration in the soil compared with urine alone or urine+DMSO,[1]; 2 kg/ha,significantly lower nitrate-N concentrations
same,% reduction by NI (nitrate-N),[1]; 2 kg/ha,95%
same,reducing the nitrification rate compared with DCD,[1],more effective than DCD
same,Nitrate-N,[1]; urine + inhibitor at 0.5 kg/ha,35.5 mg N/kg soil
same,Nitrate-N,[1]; urine + inhibitor at 1 kg/ha,10.3 mg N/kg soil
same,Nitrate-N,[1]; urine + inhibitor at 2 kg/ha,10.5 mg N/kg soil
C#Cc1ccc[n+]([O-])c1 [3-ethynylpyridine 1-oxide],Inhib(%),nitrification,100%
same,nitrate-N concentration in the soil compared with urine alone or urine+DMSO,[1]; 0.5 kg/ha,lower nitrate-N concentrations
same,% reduction by NI (nitrate-N),[1]; 0.5 kg/ha,43%
same,nitrate-N concentration in the soil compared with urine alone or urine+DMSO,[1]; 1 kg/ha,lower nitrate-N concentrations
same,% reduction by NI (nitrate-N),[1]; 1 kg/ha,96%
same,nitrate-N concentration in the soil compared with urine alone or urine+DMSO,[1]; 2 kg/ha,significantly lower nitrate-N concentrations
same,% reduction by NI (nitrate-N),[1]; 2 kg/ha,97%
same,reducing the nitrification rate compared with DCD,[1],more effective than DCD
same,Nitrate-N,[1]; urine + inhibitor at 0.5 kg/ha,224.4 mg N/kg soil
same,Nitrate-N,[1]; urine + inhibitor at 1 kg/ha,20.8 mg N/kg soil
same,Nitrate-N,[1]; urine + inhibitor at 2 kg/ha,8.2 mg N/kg soil
same,nitrous oxide reductions compared with DCD,[2],greater than that by DCD
same,N2O emissions,[2]; urine + inhibitor at 2 kg/ha,3.6 kg N2O—N/ha
same,N2O emissions,[2]; urine + inhibitor at 10 kg/ha,0.79 kg N2O—N/ha
C#Cc1ccncn1 [4-Ethynylpyrimidine],Inhib(%),nitrification,100%
same,nitrate-N concentration in the soil compared with urine alone or urine+DMSO,[1]; 1 kg/ha,lower nitrate-N concentrations
same,nitrate-N concentration in the soil compared with urine alone or urine+DMSO,[1]; 2 kg/ha,significantly lower nitrate-N concentrations
same,reducing the nitrification rate compared with DCD,[1],more effective than DCD
"C#Cc1ccc(O)cc1 [4-ethynylphenol, reference compound]",Inhib(%),nitrification,0%
"C#CC1CCNCC1 [4-ethynylpiperidine hydrochloride, reference compound]",Inhib(%),nitrification,0%
"C#Cc1cc[n+](O)cc1 [4-ethynylpyridine 1-oxide, reference compound]",Inhib(%),nitrification,18%
"C#Cc1c[nH]c(=O)[nH]c1=O [5-ethynyl-2,4(1H,3H)-pyrimidinedione, reference compound]",Inhib(%),nitrification,0%
C#Cc1ccc(OC)nc1 [5-ethynyl-2-methoxypyridine],Inhib(%),nitrification,100%
same,nitrate-N concentration in the soil compared with urine alone or urine+DMSO,[1]; 2 kg/ha,lower nitrate-N concentrations
